Measurements: PubChem BioAssay (NCI)
Values joined by “and” are separate entries in the source; they are usually repeats but may differ in a detail not shown here. Identical values can stand only once.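 Method: 48-hour compound exposure of cells in 96-well plates, five concentrations, linear interpolation of endpoints. GI50 = concentration required for 50% inhibition of growth. TGI denotes the concentration required for complete inhibition of growth.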

Columns and labels:
Assay in all cases: DTP human tumour cell line panel, 48 h
SK-OV-3 ovarian = tested on: SK-OV-3 ovarian
OVCAR-5 ovarian = tested on: OVCAR-5 ovarian
SF-295 CNS = tested on: SF-295 CNS
CAKI-1 renal = tested on: CAKI-1 renal
SNB-19 CNS = tested on: SNB-19 CNS
PC-3 prostate = tested on: PC-3 prostate
HL-60(TB) leukemia = tested on: HL-60(TB) leukemia
MDA-MB-435 = tested on: MDA-MB-435
OVCAR-4 ovarian = tested on: OVCAR-4 ovarian
RPMI-8226 leukemia = tested on: RPMI-8226 leukemia

Row | Structure (SMILES) | TGI (SK-OV-3 ovarian) | TGI (OVCAR-5 ovarian) | TGI (SF-295 CNS) | TGI (CAKI-1 renal) | TGI (SNB-19 CNS) | TGI (PC-3 prostate) | TGI (HL-60(TB) leukemia) | TGI (MDA-MB-435) | TGI (OVCAR-4 ovarian) | TGI (RPMI-8226 leukemia) | GI50 (SK-OV-3 ovarian) | GI50 (OVCAR-5 ovarian) | GI50 (SF-295 CNS) | GI50 (CAKI-1 renal) | GI50 (SNB-19 CNS) [µM] | GI50 (PC-3 prostate) | GI50 (HL-60(TB) leukemia) | GI50 (MDA-MB-435) | GI50 (OVCAR-4 ovarian) | GI50 (RPMI-8226 leukemia)
1 | O=S1(=O)NC2CCC3NS(=O)(=O)NC4CCC(N1)N4S(=O)(=O)N23 (stereo not given) | > 100 µM | > 100 µM | > 100 µM | > 100 µM | > 100 µM | > 100 µM | > 100 µM | > 100 µM | > 100 µM | > 100 µM | – | – | – | – | – | – | – | – | – | –
2 | CCC(C)[C@H](NC(=O)NC(=O)NC(=O)CI)C(=O)OC (stereo not given in full) | 31.4 µM | 32.3 µM | 28.9 µM | 2.78 µM | 31.6 µM | 26.7 µM | 3.4 µM | 22.3 µM | 8.68 µM | 9.27 µM | 17.2 µM | 15 µM | 15.2 µM | 1.41 µM | 15.4 | 12.2 µM | 1.6 µM | 10.5 µM | 2.48 µM | 3.16 µM
3 | CCCCCCCCCCC/C=C\C[C@H](O)C/C=C1/C(=O)C=C[C@@H]1C/C=C\CCCC(=O)OC | 21.5 µM | 8.58 µM | 6.74 µM | 5.62 µM | 4.58 µM | 2.76 µM | 2.68 µM | 1.8 µM | 3.68 µM | 1.62 µM | 5.78 µM | 1.7 µM | 1.37 µM | 1.07 µM | 1.24 | 0.836 µM | 0.835 µM | 0.71 µM | 0.862 µM | 0.534 µM
4 | Cc1ccc(/C=C/C(=N/N=C(N)N)c2ccccc2)cc1 | 12.2 µM | 12.4 µM | 13.1 µM | 25.1 µM | 17.3 µM | 16.9 µM | 4.75 µM | 4.93 µM | 15.6 µM | 7.98 µM | 2.99 µM | 2.97 µM | 2.99 µM | 8.97 µM | 4.21 | 3.32 µM | 2.28 µM | 0.432 µM | 3.65 µM | 2.3 µM
5 | CSc1ccc2c(c1)N(CCC1CCCCN1C)c1ccccc1S2 (stereo not given) | 27.5 µM and 29 µM | 22 µM and 13.2 µM | 22.6 µM and 8.7 µM | 13 µM and 18.3 µM | – | 16.6 µM and 13.8 µM | 30.3 µM and 9.22 µM | 13.6 µM and 11.1 µM | 20.3 µM and 16.9 µM | 27.1 µM and 6.05 µM | 13 µM and 13.8 µM | 10.1 µM and 3.83 µM | 8.64 µM and 2.86 µM | 3.23 µM and 4.91 µM | – | 4.27 µM and 3.63 µM | 13.4 µM and 3.12 µM | 3.48 µM and 3.1 µM | 7.99 µM and 5.22 µM | 8.8 µM and 2.23 µM
6 | COc1ccc(CNC(C)C(=O)O)cc1 (stereo not given) | > 100 µM | > 100 µM | > 100 µM | > 100 µM | > 100 µM | > 100 µM | > 100 µM | > 100 µM | > 100 µM | > 100 µM | – | – | – | – | – | – | – | – | – | –
7 | Cc1cc2nc3ccc(=[N+](C)C)cc-3sc2cc1N | 8.08 µM and 34.8 µM and 10.9 µM | 3.95 µM and 22.5 µM and 3.42 µM | 5.27 µM and 14.5 µM and 4.83 µM | 12.8 µM and > 55.9 µM and 10.2 µM | 10.5 µM and 8.99 µM and 9.55 µM | 2.65 µM and 7.2 µM and 3.43 µM | – | 0.46 µM and 2.18 µM and 0.665 µM | – | – | 1.98 µM and 3.01 µM | 1.37 µM and 0.833 µM | 0.473 µM and 0.554 µM | 2.3 µM and 1.56 µM | 0.782 | 0.121 µM and 0.173 µM | 0.214 µM and 0.181 µM | 0.209 µM and 0.256 µM | 0.21 µM and 0.146 µM | 0.218 µM and 0.0867 µM
